Assay results taken from patent US11696960B2, “Methods and compounds for detection and binding of aldehydes” (UNIVERSITY OF OTTAWA, priority 2017, dated 2023).

Assays:
[1] = Z-spectra / CEST signal production (% MTRasym) on 300 MHz NMR; conditions: for CEST signal production: hydrazone with o-sulfobenzaldehyde, Z-spectrum (FIG. 19); for CEST-MRI signal generation (in words): Z-spectra, 37° C., pH 7.4, 40 mM
Method: FIG. 27 provides Z-spectra of compounds 8b, 10a, 12, and 11 for Panels A to D, respectively. […] The absence of the hydrazone proton through the formation of a pyrazole also completely abolishes CEST-MRI signal (Panel D). Raw data points (S/So are shown as black circles), exchangeable proton and water Lorentzian curves, and CEST-MRI signal production MTRasym (%), are also shown. All Z-spectra are obtained at 37° C. and pH 7.4 with 40 mM compound solutions in 10:1 PBS:D2O unless otherwise indicated.
Electron donating (OH, OCH3) and electron-withdrawing (I, SO3, NO2) substituents were appended at the 5-position of N-amino anthranilic acid (compounds 2b-2f), both acetaldehyde (4b-4f) or 2-formylbenzenesulfonic acid-derived hydrazones (3b-3f) were prepared, and Z-spectra were acquired in 1:10 D2O:PBS at pH 7.4 on a 300 MHz NMR.
In this way, per molar signal output could be compared across hydrazone series to examine electronic contributions to Hydrazo-CEST.
(§1) The MRI contrast produced by CEST probes is dependent upon voxel-wise concentration, however previous investigations have reported non-linear concentration relationships for CEST contrast agents. In order to evaluate this dependence for Hydrazo-CEST compounds, Z-spectra were acquired for acetaldehyde (4b-4f) and 2-formylbenzenesulfonic acid-derived hydrazones (3b-3f) on a 300 MHz NMR from 5 mM to 40 mM, or the maximum solubility of the compound in neutral buffer. The dynamic range for Hydrazo-CEST signal production from each compound was then plotted using the maximum signal for each compound (6.4±0.4 ppm). Within the series of acetaldehyde-derived hydrazones, the 5-methoxy- (4f) and 5-hydroxy-substituted (4e) analogs had the broadest dynamic range for imaging signal, with the 5-methoxy-derivative showing the higher absolute % MTRasym and the most linear concentration-dependent signal production (R^2=0.98).
Z-spectra were acquired on a 300 MHz NMR in 10:1 PBS:D2O at 37° C., pH 7.4, at 40 mM, or the indicated concentration providing maximum solubility. Hydrazones were formed between 2f and (Panel A) 3-aminopropanal, (Panel B) crotonaldehyde, (Panel C) glyceraldehyde, and (Panel D) pyruvate.

[2] = system: hippocampal CA3 neurodegeneration; conditions: TMT rat model, Wood et al. (2006); cited from earlier work
[3] = Solubility of hydrazones in buffer; type: physicochemical
Method: as §1
In addition to local probe concentrations, micro-environmental pH can modify CEST signal production, as pH directly impacts ksw. The effect of pH on % MTRasym was evaluated for the unsubstituted, 5-hydroxy-, and 5-methoxy-substituted hydrazones derived from acetaldehyde (4a, 4e, 4f) and 2-formylbenzenesulfonic acid (3a, 3e, 3f). […] The hydroxy- and methoxy-substituted aryl-hydrazones (3e, 3f) gave better CEST signal production from pH 6.5-8.0, but both were insoluble at 40 mM at pH 6.0. The differential pH responses associated with the Hydrazo-CEST probes studied are justified by the higher predicted electron density around the ring-proximal nitrogen of the aliphatic versus aromatic hydrazones, which would favor the protonated form of the hydrazo moiety at higher pH values.

[4] = Time-lapse imaging of acetaldehyde-derived hydrazone formation in PBS; conditions: room temperature
Excerpt: N-Amino anthranilic esters can be fast-reacting aldehyde sensors. N-amino anthranilate methyl ester reacts rapidly with endogenous reactive aldehydes. The reaction of 5-methoxy-N-amino anthranilate methyl ester (1) with a reactive aldehyde results in the formation of […] in PBS at room temperature is shown: […]

[5] = Hydrazone formation kinetics and reaction completion in 1×PBS at 37° C.; conditions: for kobs: pseudo-first order, carbonyl o-sulfobenzaldehyde
Method: (§2) The hydrazone peak is shown (r.t.=17.5 min for MeONA^3 and 17.2 min for MeOPH) at the time points indicated, showing a loss of the MeOPH-derived hydrazone but stability of the MeONA^3-derived product over time. All reactions were performed in 1×PBS at 37° C., and points represent mean±s.d. for n=3 trials
FIG. 13, discussed above, illustrates that the o-carboxylic acid contributes to substantial reaction completion as well as extended stability of the product hydrazone under physiological conditions. […] The hydrazone peak is shown (r.t.=17.5 min for 2f and 17.2 min for MeOPH) at the time points indicated. All reactions were performed in 1×PBS at 37° C., and points represent mean±s.d. for n=3 trials.
(§3) Repeating the methodology, however at 37° C. in 100% 1×PBS, determined the kobs for the reaction of 5-methoxy N-amino anthranilic acid (2f) and related analogs with 2-formylbenzenesulfonic acid (FIG. 13) and acetone.
(§4) Hydrazone stability was assayed both spectrophotometrically (FIG. 13, Panel A), as well as by HPLC (FIG. 13, Panel B). […] Since the signal produced by Hydrazo-CEST depends on the hydrazone form of the probe, the faster-forming and longer-lived the hydrazone product under physiological conditions, the better the imaging signal evolved and the more potentially sensitive the imaging technique.

[6] = Hydrazone product stability (spectrophotometric, HPLC); type: physicochemical; conditions: 1×PBS, 37° C.
Method: as §2
The carboxylic acid ortho to the hydrazine is critical to the stability of the formed hydrazone product. All reactions were performed in 1×PBS at 37° C., and points represent mean±s.d. for n=3 trials.
as §4

[7] = Trapping of MDA by N-amino anthranilic acid probe, monitored by 1H-NMR and fluorimetry; conditions: incubation of NA^3 acid probe and MDA, 1H-NMR
Method: N-amino anthranilic acids can act as specific sensors for malondialdehyde. N-amino anthranilic acid reacts rapidly with MDA to form a fluorescent pyrazole. A proposed 2-step reaction scheme for the formation of the MDA-derived pyrazole (5) from 5-methoxy-N-amino anthranilic acid (3) is shown:
The formation of the MDA-derived pyrazole ring was monitored by ^1H-NMR. Hydrazone (4) formation happens within less than 1 min of incubation of the NA^3 acid probe and MDA. The pyrazole product (5) forms rapidly as well, and reaches completion within 20 min. The fluorescence ‘turn-on’ of the N-amino anthranilic acid probe is specific for MDA.

[8] = Hydrazone formation kinetics and reaction completion in 1×PBS at 37° C.
Method: as §3, §4

[9] = Hydrazone formation with glucose under physiological conditions (interference test); conditions: 37° C., 1 PBS, pH=7.4, within 4 h of incubation
[10] = Hydrazo-CEST MRI phantom imaging (3 T and 7 T) and in situ hydrazone formation
Method: In the upper panel, a Phantom image and Z-spectra of hydrazine 2f and hydrazones 3f and 4f were acquired at the indicated field strength, 37° C., pH 7.4, and 40 mM concentration.
Values indicate the % MTRasym±the standard deviation of the off-resonance measurements once the system had reached steady state.
The kinetics of Hydrazo-CEST signal production through hydrazone formation were also evaluated in the MRI at 37° C. in 1×PBS at pH=7.4 (FIG. 28). Either PBS or a PBS solution of 2-formylbenzenesulfonic acid at a final concentration of 20 mM was injected into the imaging phantom, and Z-spectra were acquired every 4.5 min to monitor hydrazone formation.
A single saturation peak at 6.4 ppm was observed 4.5 min after aldehyde injection. […] This MRI data confirms that Hydrazo-CEST probes are rapidly activated by aldehydes under physiological conditions, and are readily detectable by 7 T MRI. Both hydrazine and hydrazone functionalities are utilized in medications broadly spanning indications from anti-infectives and anti-parasitics, to anti-cancer agents.

[11] = Hydrazone formation kinetics under pseudo-first order conditions in 1×PBS at 37° C.; conditions: carbonyl acetaldehyde
Method: The carboxylic acid ortho to the hydrazine is critical to the stability of the formed hydrazone product. All reactions were performed in 1×PBS at 37° C., and points represent mean±s.d. for n=3 trials. […]

[12] = Preliminary in vitro toxicity assays
[13] = reaction with butanal, 1:10 DMF:PBS solution; cited from earlier work

Q: For `O=C(O)c1ccccc1NN=Cc1ccccc1S(=O)(=O)O` [Compound 3a], which CEST signal production [1] is on record?
A: ~5%

Q: With `O=C(O)c1cccc(O)c1` [Compound 12, 3-Hydroxybenzoic acid, reference compound] as the compound, how does the “CEST-MRI signal generation (in words)” value [1] read?
A: nearly completely abolishes signal production

Q: With `ONCc1ccccc1` [N-benzylhydroxylamine] as the compound, how does the protection against neurodegeneration [2] read?
A: provided protection against neurodegeneration

Q: Which results are given for `C/C=N/Nc1ccc(OC)cc1C(=O)OC` [Compound 8b, reference compound]?
A: CEST-MRI signal generation (in words) [1]: complete loss of the CEST effect; CEST-MRI signal generation (in words) ([1]; listed as compound 302): prevents any CEST-MRI signal generation

Q: For `CC=NNc1ccccc1C(=O)O` [Compound 4a], which solubility ([3]; neutral buffer) is on record?
A: limited solubility beyond 20 mM

Q: What about the solubility ([3]; pH 6.0-8.0) of the same compound?
A: completely soluble

Q: Which “CEST-MRI signal generation (in words)” value [1] does the source give for `COc1ccc(N/N=C/C(O)CO)c(C(=O)O)c1` (stereo not shown) [Compound 5c] here?
A: limited signal production

Q: Which results are given for `C/C=N/Nc1ccc(OC)cc1C(=O)O` [Compound 4f]?
A: MTRasym ([1]; 5 mM): 9%; CEST-MRI signal generation (in words) [1]: substantial signal; solubility ([3]; 40 mM, pH 6.5): not soluble

Q: For `O=C(O)c1cccnc1N/N=C/c1ccccc1S(=O)(=O)O` [Compound 319], which CEST signal production [1] is on record?
A: ~25%

Q: Which results are given for `COC(=O)c1cc(OC)ccc1NN` [Compound 7, 5-methoxy-N-amino anthranilate methyl ester, reference compound]?
A: time to hydrazone formation after aldehyde addition [4]: ≤ 1 s; kobs [5]: 0.0008 ± 5.5e-05 min⁻¹

Q: Which kobs [5] does the source give for `COc1ccc(NN)cc1.Cl.Cl` [Compound 9, 4-methoxyphenyl hydrazine dihydrochloride, reference compound] here?
A: 0.119 ± 0.02 min⁻¹

Q: With `COc1ccc(NN=Cc2ccccc2S(=O)(=O)O)c(C(=O)O)c1` [Compound 3f] as the compound, how does the “stability of hydrazone product” value [6] read?
A: long-term stability

Q: And the solubility ([3]; 40 mM, pH 6.0)?
A: insoluble

Q: For `COc1ccc(-n2cccn2)c(C(=O)O)c1` [Compound 5], which “time to completion of pyrazole product formation” value [7] is on record?
A: ≤ 20 min

Q: And the “CEST-MRI signal generation (in words)” value [1]?
A: Complete abolishment of signal production

Q: For `COc1ccc(NN)c(C(=O)O)c1` [Compound 2f, 5-methoxy N-amino anthranilic acid], which kobs ([8]; pseudo-first order, 37° C., carbonyl acetone) is on record?
A: 0.017 ± 0.0004 min⁻¹

Q: And the product formation ([8]; reaction with acetone, 37° C. (data not shown))?
A: < 25%

Q: And the “hydrazone formation with D-glucose” value [9]?
A: no hydrazone formation

Q: What about the “maximum plateau % MTRasym” value ([10]; 40 mM hydrazine plus 20 mM 2-formylbenzenesulfonic acid, 37° C., 1×PBS, pH 7.4) of the same compound?
A: 4.6±0.7 % MTRasym

Q: And the “CEST contrast in MRI (in words)” value ([10]; 37° C., pH 7.4, 40 mM)?
A: produced no CEST contrast

Q: And the “Hydrazo-CEST signal as share of maximal signal” value ([10]; within the first 4.5 min after aldehyde injection)?
A: > 50%

Q: What about the kobs [11] of the same compound?
A: 0.012 ± 0.001 min⁻¹

Q: What about the kobs [5] of the same compound?
A: 0.112 ± 0.03 min⁻¹

Q: And the “reaction completion (hydrazone formation)” value ([5]; within 30 min of initiation)?
A: ~90%

Q: And the in vitro toxicity [12]?
A: initial safety

Q: And the “CEST-MRI signal generation (in words)” value [1]?
A: little CEST-MRI signal

Q: For `NNc1ccccc1C(=O)O` [Compound 101, N-amino anthranilic acid], which “pseudo-first-order rate constant (kobs)” value [13] is on record?
A: 1.5 ± 0.2 min⁻¹
